Data from US20160331717A1, “CABAZITAXEL AND ITS USE FOR TREATING CANCER” (AVENTIS PHARMA S.A., priority 2015, published 2016).
Where two headings read alike, the source gives them in different places.

Key:
[1] = Pharmacokinetics of cabazitaxel in POP6792 (plasma, LC-MS/MS, Cycle 1); format: in vivo, human
Experimental: Total cabazitaxel concentrations in plasma were determined using a validated liquid chromatography with tandem mass spectrometry method (LC-MS/MS) with a lower limit of quantification (LLOQ) of 1 ng/mL.

[2] = tested on: advanced solid tumor patients with varying degrees of hepatic impairment; conditions: for maximum tolerated dose (MTD): 1-hour IV infusion every 3 weeks; for death related to study drug: one patient
Experimental: • The primary endpoint was the occurrence of DLTs during Cycle 1. • The secondary endpoints were: • Treatment-emergent adverse events (TEAEs); • Laboratory abnormalities; and, • Pharmacokinetic parameters (Cmax, Ceoi, tmax, tlast, AUClast, AUCO-24, AUCO-72, t1/2z, AUC, CL and Vss). • The effect of the degree of hepatic impairment on cabazitaxel PK parameters was evaluated according to a linear mixed effects model (Log [parameter]=Cohort+Error) with a fixed term for Cohort, fit by estimated generalized least squares (GLS) using SAS PROC MIXED. Estimate and 90% confidence interval (CI) for the geometric mean ratio of each cohort versus Cohort 1 and of Cohorts 3 and 4 versus Cohort 2 were provided for CL, CL/BSA, and exposure parameters (Cmax, AUC, AUClast, AUCO-24 and AUCO-72) normalized to actual cabazitaxel dose in mg/m^2.
• The study was designed as an open-label, dose-escalation, multi-center study of cabazitaxel administered as a 1-hour intravenous (IV) infusion every 3 weeks in cancer patients with varying degrees of hepatic impairment. Patients were enrolled in 4 cohorts based on hepatic function at baseline graded by total bilirubin and aspartate aminotransferase (AST): • Cohort 1: normal hepatic function (total bilirubin supper limit of normal [ULN]; aspartate aminotransferase [AST]≦ULN), • Cohort 2: mild hepatic impairment (total bilirubin >1 to ≦1.5×ULN or AST>1.5×ULN), • Cohort 3: moderate hepatic impairment (total bilirubin >1.5× to ≦3.0×ULN; AST=any), • Cohort 4: severe hepatic impairment (total bilirubin >3.0×-10×ULN; AST=any). • All liver function tests must be completed within 48 hours prior to start of treatment, and reviewed by the investigator or their designee before treatment administration.
Cabazitaxel is administered on Day 1 of each 3-week cycle. Patients received cabazitaxel administered by IV infusion over 1 hour at the dose specified for each cohort. The actual amount of cabazitaxel administered was adjusted at each cycle based on body surface area (BSA) to a maximum BSA of 2.1 m^2 (i.e., patients with a BSA over 2.1 m2 will receive the same amount of cabazitaxel as those with a BSA of 2.1 m).
For Cohorts 2, 3 and 4, dose-escalation was based on dose-limiting toxicities (DLTs) during Cycle 1; real time PK information was used along with safety information. The maximum administered dose (MAD) was to be reached at the dose level when at least 2 patients develop a DLT during Cycle 1. The MTD was defined as the highest dose at which no more than 0 of the first 3 patients, or 1 of 6 patients, experience a DLT during Cycle 1, to a maximum dose of 25 mg/m2. The MTD was one dose level below the MAD.
To be considered a DLT, the clinical adverse event (AE) or laboratory abnormality should be drug-related as assessed by the investigator.
Liver DLTs in patients with hepatic dysfunction (Cohorts 2, 3 and 4) were defined as an increase in total and direct bilirubin and/or transaminase levels to 3 times the baseline value.

[3] = POH0124; CV=38.8%, n=170; cited from earlier work
[4] = Cohort 2, mild hepatic impairment
[5] = Cohort 3 at the MTD, 4/7 patients

In the case of CO[C@H]1C(=O)[C@]2(C)[C@@H](OC)C[C@H]3OC[C@@]3(OC(C)=O)[C@H]2[C@H](OC(=O)c2ccccc2)[C@]2(O)C[C@H](OC(=O)[C@H](O)[C@@H](NC(=O)OC(C)(C)C)c3ccccc3)C(C)=C1C2(C)C [cabazitaxel, 4α-acetoxy-2α-benzoyloxy-5β,20-epoxy-1-hydroxy-7, 101-dimethoxy-9-oxo-11-taxen-13α-yl (2R,3S)-3-tert-butoxycarbonyl-amino-2-hydroxy-3-phenylpropionate], the CL/BSA estimate ([1]; Cohort 1, normal hepatic function, 90% CI: 8.6-20.8) is reported as 13.4 L/h/m2, the CL/BSA estimate ([1]; Cohort 2, mild hepatic impairment, 90% CI: 17.6-31.4) is reported as 23.5 L/h/m2 and the “CL/BSA geometric mean ratio” value ([1]; Cohort 2 versus Cohort 1, 75% increase, 90% CI: 1.04-2.96) is reported as 1.75. For the same compound, the “mean CL/BSA” value ([1]; Cohort 3/10 mg/m^2 (aberrant PK behavior, excluded from statistical analysis)) was 517 L/h/m2, the “CL/BSA geometric mean ratio, sensitivity analysis” value ([1]; Cohort 3 versus Cohort 2, after exclusion of patients with erratic PK profile, 6% decrease, 90% CI: 0.64-1.38) was 0.94 and the “AUClast/dose geometric mean ratio” value ([1]; Cohort 3 versus Cohort 2, 14% decrease, 90% CI: 0.50-1.46) was 0.86. The “CL/BSA geometric mean ratio” value ([1]; Cohort 3 versus Cohort 2, 19% increase, 90% CI: 0.74-1.91) was 1.19, the “CL/BSA geometric mean ratio, sensitivity analysis” value ([1]; Cohort 4 versus Cohort 2, after exclusion of patients with erratic PK profile, 39% decrease, 90% CI: 0.36-1.05) was 0.61 and the “AUClast/dose geometric mean ratio” value ([1]; Cohort 4 versus Cohort 2, 17% increase, 90% CI: 0.63-2.14) was 1.17. The “CL/BSA geometric mean ratio” value ([1]; Cohort 4 versus Cohort 2, 23% decrease, 90% CI: 0.39-1.53) was 0.77, the “mean CL/BSA, Cohort 3/10 mg/m^2 versus other Cohort 3 patients” value ([1]; higher) was “approximately 20 fold” and the “effect of hepatic impairment on cabazitaxel clearance” value ([1]; mild or moderate hepatic impairment) was “no evidence that mild or moderate hepatic impairment results in a substantial decline in cabazitaxel clearance”. The CL/BSA estimate ([1]; moderate hepatic impairment) was 27.9 L/h/m2, the “mean CL/BSA” value ([1]; other Cohort 3 patients, 15 and 20 mg/m2) was 30.5 L/h/m2 and the CL/BSA estimate ([1]; severe hepatic impairment) was 18.1 L/h/m2. The “maximum administered dose (MAD)” value [2, 4] was 25 mg/m2, the “maximum tolerated dose (MTD)” value [2, 4] was 20 mg/m^2 and the “death related to study drug” value ([2]; Cohort 2/20 mg/m^2) was “died due to Gr 4 Candida sepsis related to study drug”. For the same compound, the “maximum tolerated dose (MTD)” value ([2]; Cohort 3, moderate hepatic impairment) was 15 mg/m^2, the “study drug-related febrile neutropenia, patients” value ([2]; Cohort 3 at the MTD, 1/7 patients) was 14.3% and the “study drug-related TEAE diarrhea, patients” value ([2]; Cohort 3 at the MTD, 3/7 patients) was 42.9%. The “Gr≧3 on-treatment neutrophil count decreased, patients” value [2, 5] was 57.1%, the “Gr≧3 on-treatment white blood cell count decreased, patients” value [2, 5] was 57.1% and the “death related to study drug” value ([2]; Cohort 4/20 mg/m^2) was “died due to a combination of shock, acute renal failure, tumor lysis syndrome (all related to study drug)”. For the same compound, the “death due to disease progression, patients” value ([2]; all cohorts, 21/43 patients) was 48.8%, the “patients who died by the cut-off date” value ([2]; all cohorts, 23 of 43 patients) was 53.5% and the “study drug-related TEAE diarrhea, patients” value ([2]; human, in vivo) was 41.7%. The “study drug-related TEAE fatigue, patients” value ([2]; human, in vivo) was 83.3%, the “study drug-related serious TEAE febrile neutropenia, patients” value ([2]; human, in vivo) was 25.0% and the “study drug-related serious TEAE neutropenia (Gr≧3), patients” value ([2]; human, in vivo) was 33.3%. For the same compound, the “maximum administered dose (MAD)” value ([2]; human, in vivo, 3 weeks) was 20 mg/m2, the febrile neutropenia ([2]; in vivo) was “No patient experienced febrile neutropenia” and the “safety profile at the MTD” value ([2]; patients with mild or moderate hepatic impairment) was “generally similar to that observed at 25 mg/m^2 in patients with normal hepatic function”. The “typical cabazitaxel clearance (CL/BSA) by population PK analysis” value [3] was 26.4 L/h/m2.
